We go through one compound from paper PMC13377601, “Discovery of VU6066098: A Selective and CNS-Penetrant mGlu2 NAM with Robust Antidepressant‑, Antipsychotic‑, and Procognitive-like Activity in Rodents” (ACS Chemical Neuroscience, 2026).

In the assay the target is T1, human mGlu2 (Homo sapiens, UniProt Q14416).
T1 construct: expressed in transfected cells; host or cells: HEK293 stably co-expressing GIRK channels
Nature of the assay: mGlu2/GIRK thallium flux assay (human). The format is cell-based. Conditions: NAM vs glutamate EC80.

T1 sequence (Q14416 19-872): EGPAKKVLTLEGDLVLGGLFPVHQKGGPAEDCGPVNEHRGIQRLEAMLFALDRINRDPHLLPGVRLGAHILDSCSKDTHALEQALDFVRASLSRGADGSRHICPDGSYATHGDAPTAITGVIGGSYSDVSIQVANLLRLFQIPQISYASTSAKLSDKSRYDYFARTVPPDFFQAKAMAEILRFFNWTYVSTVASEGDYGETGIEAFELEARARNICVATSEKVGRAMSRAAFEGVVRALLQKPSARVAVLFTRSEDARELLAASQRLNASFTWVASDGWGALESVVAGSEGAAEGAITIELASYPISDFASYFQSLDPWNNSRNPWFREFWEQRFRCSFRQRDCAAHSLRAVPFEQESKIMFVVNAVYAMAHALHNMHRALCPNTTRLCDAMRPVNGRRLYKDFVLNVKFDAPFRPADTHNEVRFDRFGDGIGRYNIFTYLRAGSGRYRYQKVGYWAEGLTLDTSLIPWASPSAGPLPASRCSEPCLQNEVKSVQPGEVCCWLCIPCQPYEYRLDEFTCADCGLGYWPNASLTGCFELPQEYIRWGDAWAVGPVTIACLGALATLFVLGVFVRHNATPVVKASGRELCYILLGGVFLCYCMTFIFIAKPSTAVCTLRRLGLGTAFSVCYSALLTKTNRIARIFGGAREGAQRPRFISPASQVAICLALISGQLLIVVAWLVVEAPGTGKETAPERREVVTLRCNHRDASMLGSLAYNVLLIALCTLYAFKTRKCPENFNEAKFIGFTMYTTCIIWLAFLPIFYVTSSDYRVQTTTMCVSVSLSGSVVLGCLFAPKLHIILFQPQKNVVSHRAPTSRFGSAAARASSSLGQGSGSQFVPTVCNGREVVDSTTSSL
Description: Molecular Pharmacolgy Methods
Assessment of Cellular Potency of mGlu2 compounds in Thallium Flux Assay Human embryonic kidney 293 (HEK293) cell lines stably co-expressing human or rat mGlu2 and G protein-coupled inwardly rectifying potassium (GIRK) channels were maintained in growth medium containing DMEM/F12 containing 10% FBS, 20 mM HEPES, 1 mM sodium pyruvate, 2 mM L-glutamine, non-essential amino acids mixture, 1X Antibiotic/Antimycotic, 700 μg/mL G418, and 0.6 μg/mL puromycin. […]
Using a microplate washer (BioTek, Winooski, VT), cells were washed with GIRK assay buffer 4 times to remove media. […] The compound, agonist, and cell plates were placed inside the Functional Drug Screening System (FDSS 7000 or µCell kinetic imaging plate reader, Hamamatsu, Japan) to measure the thallium flux using a double add protocol. After establishment of a fluorescence baseline (excitation, 480 nm; emission, 530 nm), 20 µL (2x) of test compound was added to the cells at 2 seconds and the response was measured. 140 seconds later, 10 µL (5x) of an EC80 concentration of glutamate or vehicle in thallium stimulus buffer was added to the cells, and the response of the cells was measured for an additional 158 seconds. […] Fluorescence was measured […]
The average of all baseline slopes (no compound, no glutamate) was determined and this value was subtracted from all other slope values.

The term IC50 denotes the concentration that gives 50% inhibition. Low readings indicate higher potency, high ones lower potency. For `Cn1ccc(COc2cnc(C(N)=O)cc2-c2ccc(F)cc2)n1` [NAM 5], inhibition was half-maximal at 78 nM (IC50).
